# Test results from ChEMBL document CHEMBL4706683 (J Med Chem, 2021).
# The source made the active and inactive calls. The calls are words filed in the database; no cut-off is given here.
# Legend:
# Plasmodium falciparum [1] = test: Antiplasmodial activity against synchronized ring stage Plasmodium falciparum 3D7 infected in human erythrocytes assessed as reduction in parasite growth incubated for 72 hrs by Giemsa staining based light microscopic method; format: functional, organism-based; details: 3D7, Erythrocyte
# Plasmodium falciparum [2] = test: Antiplasmodial activity against synchronized ring stage Plasmodium falciparum Dd2 infected in human erythrocytes assessed as reduction in parasite growth incubated for 72 hrs by Giemsa staining based light microscopic method; format: functional, organism-based; details: Dd2, Erythrocyte
# HepG2 = test: Cytotoxicity against human HepG2 cells assessed as reduction in cell viability incubated for 72 hrs by cell titer glo assay; format: cell-based; details: HepG2, 72 h
# HEK-293T = test: Cytotoxicity against human HEK293T cells assessed as reduction in cell viability incubated for 72 hrs by cell titer glo assay; format: cell-based
# [3] = Selectivity index, ratio of IC50 for cytotoxicity against human HepG2 cells assessed to IC50 for antiplasmodial activity against synchronized ring stage Plasmodium falciparum 3D7 infected in human erythrocytes; format: toxicity, cell-based; details: read-out: Ratio IC50
# [4] = Selectivity index, ratio of IC50 for cytotoxicity against human HEK293T cells assessed to IC50 for antiplasmodial activity against synchronized ring stage Plasmodium falciparum 3D7 infected in human erythrocytes; format: toxicity, cell-based; details: read-out: Ratio IC50
# Plasmodium falciparum [5] = test: Antiplasmodial activity against Plasmodium falciparum GB4 infected in human erythrocytes assessed as reduction in parasite growth incubated for 72 hrs by Giemsa staining based light microscopic method; format: functional, organism-based; details: GB4, Erythrocyte
# Plasmodium falciparum [6] = test: Antiplasmodial activity against Plasmodium falciparum C2A infected in human erythrocytes assessed as reduction in parasite growth incubated for 72 hrs by Giemsa staining based light microscopic method; format: functional, organism-based; details: Erythrocyte
# [7] = Half life in mouse liver microsomes incubated upto 45 mins in presence of NADPH by LC-MS/MS analysis; format: ADME, Microsome
# [8] = Clearance in mouse liver microsomes incubated upto 45 mins in presence of NADPH by LC-MS/MS analysis; format: ADME, Microsome; details: read-out: CLH
# [9] = Toxicity in Balb/c mouse infected with blood stage Plasmodium yoelii assessed as animal death at 10 to 30 mg/kg, ip QD for 5 consecutive days and measured on day 6; format: organism-based; details: in vivo, 120 h, dose 10-30 mg/kg, time 5 day
# Plasmodium yoelii [10] = test: Antiplasmodial activity against blood stage Plasmodium yoelii infected in Balb/c mouse assessed as reduction in parasitemia at 10 to 30 mg/kg, ip QD for 5 consecutive days and measured on day 20 by microscopic analysis; format: functional, organism-based; details: dose 10-30 mg/kg, time 5.0 day
# Plasmodium yoelii [11] = test: Antiplasmodial activity against blood stage Plasmodium yoelii infected in Balb/c mouse assessed as reduction in parasitemia at 60 mg/kg, ip QD for 5 consecutive days and measured on day 30 by microscopic analysis; format: functional, organism-based; details: time 5.0 day
# [12] = Toxicity in Balb/c mouse infected with sporozoites liver stage Plasmodium berghei assessed as animal death at 30 mg/kg, ip administered as single dose and measured upto 96 hrs; format: organism-based; details: in vivo
# Plasmodium berghei = test: Antiplasmodial activity against liver stage Plasmodium berghei infected in Balb/c mouse assessed as reduction in parasitemia at 30 mg/kg, ip administered as single dose and measured upto 96 hrs by microscopic analysis; format: functional, organism-based; details: time hrs <=96
# Plasmodium falciparum [13] = test: Antiplasmodial activity against synchronized ring stage Plasmodium falciparum 3D7 infected in human erythrocytes assessed as new ring stage formation at 10 times IC50 incubated for 12 hrs followed by compound washout and measured at 50 hrs by […] analysis; format: functional, organism-based; details: Erythrocyte
# Plasmodium falciparum [14] = test: Antiplasmodial activity against schizont stage Plasmodium falciparum 3D7 infected in human erythrocytes assessed as reduction in parasitemia at 10 times IC50 incubated for 12 hrs followed by compound washout and measured at 96 hrs post infection by […] analysis; format: functional, organism-based; details: Erythrocyte
# Plasmodium falciparum [15] = test: (§1) Antimalarial activity against synchronized schizont stage transgenic Plasmodium falciparum 3D7 with C-terminal 3xTY1-fused HDAC2 knockdown assessed as parasite growth inhibition pretreated with glucosamine followed by compound treatment and incubated for 4 hrs followed by compound washout for thrice and subsequent culturing for 68 hrs by SYBR Green 1 staining based analysis; format: functional, organism-based
# Plasmodium falciparum [16] = test: as §1, with “glmS-fused” for “3xTY1-fused”; format: functional, organism-based
# Histone deacetylase 2 = Histone deacetylase 2 (Homo sapiens, UniProt Q92769); test: Inhibition of human HDAC2 expressed in Sf9 cells using Ac-peptide as substrate preincubated for 15 mins followed by substrate and trypsin addition and further incubated for 60 mins
# Sequence of Histone deacetylase 2 (Q92769 whole entry, the tested form may be a part): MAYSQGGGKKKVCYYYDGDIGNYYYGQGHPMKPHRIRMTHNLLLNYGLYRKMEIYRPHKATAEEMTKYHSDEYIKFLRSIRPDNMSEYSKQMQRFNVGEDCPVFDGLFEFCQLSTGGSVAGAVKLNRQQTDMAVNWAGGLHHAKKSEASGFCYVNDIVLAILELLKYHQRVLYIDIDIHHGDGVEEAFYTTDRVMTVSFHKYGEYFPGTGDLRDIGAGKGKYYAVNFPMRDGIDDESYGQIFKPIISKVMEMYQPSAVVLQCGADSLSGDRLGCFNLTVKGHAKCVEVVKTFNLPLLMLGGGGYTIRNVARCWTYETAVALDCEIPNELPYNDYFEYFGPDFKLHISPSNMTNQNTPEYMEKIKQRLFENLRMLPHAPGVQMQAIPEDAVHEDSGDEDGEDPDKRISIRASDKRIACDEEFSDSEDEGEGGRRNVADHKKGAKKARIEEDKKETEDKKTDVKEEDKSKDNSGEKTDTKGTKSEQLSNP
# [17] = target: T1, NAD-dependent protein deacetylase sirtuin-2 (Homo sapiens, UniProt Q8IXJ6); test: Inhibition of human C-terminal His-tagged SIRT2 (50 to 356 residues) expressed in Escherichia coli using Ac-peptide as substrate preincubated for 15 mins followed by substrate addition and incubated for 240 mins followed by trypsin addition and further incubated for 120 mins
# T1 sequence (Q8IXJ6 whole entry): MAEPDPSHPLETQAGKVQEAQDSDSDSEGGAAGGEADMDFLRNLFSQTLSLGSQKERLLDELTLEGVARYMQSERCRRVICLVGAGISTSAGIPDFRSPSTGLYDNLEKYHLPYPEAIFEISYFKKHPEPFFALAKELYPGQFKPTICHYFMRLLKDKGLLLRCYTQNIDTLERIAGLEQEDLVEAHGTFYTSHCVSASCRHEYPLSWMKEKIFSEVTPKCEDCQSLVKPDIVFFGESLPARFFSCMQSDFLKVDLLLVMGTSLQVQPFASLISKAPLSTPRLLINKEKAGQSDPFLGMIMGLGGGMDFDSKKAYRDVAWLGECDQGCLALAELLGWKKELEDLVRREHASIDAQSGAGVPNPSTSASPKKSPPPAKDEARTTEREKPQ
# [18] = Cmax in Balb/c mouse at 5 mg/kg, ip administered as single dose measured upto 24 hrs by LC-MS/MS analysis; format: ADME, organism-based; set-up: route intraperitoneal, dose 5 mg/kg, time <=24; details: in vivo
# [19] = Half life in Balb/c mouse at 5 mg/kg, ip administered as single dose measured upto 24 hrs by LC-MS/MS analysis; format: ADME, organism-based; details: in vivo
# [20] = Half life in Balb/c mouse at 10 mg/kg, po administered as single dose measured upto 24 hrs by LC-MS/MS analysis; format: ADME, organism-based; details: in vivo
# [21] = AUC (0 to t) in Balb/c mouse at 2 mg/kg, iv administered as single dose measured upto 24 hrs by LC-MS/MS analysis; format: ADME, organism-based; set-up: route intravenous, dose 2 mg/kg, time <=24; details: in vivo
# [22] = AUC (0 to infinity) in Balb/c mouse at 2 mg/kg, iv administered as single dose measured up to 24 hrs by LC-MS/MS analysis; format: ADME, organism-based; set-up: route intravenous, dose 2 mg/kg, time <=24; details: in vivo
# [23] = Apparent clearance during terminal phase in Balb/c mouse at 2 mg/kg, iv administered as single dose measured upto 24 hrs by LC-MS/MS analysis; format: ADME, organism-based; details: in vivo
# [24] = Apparent volume of distribution during terminal phase in Balb/c mouse at 2 mg/kg, iv administered as single dose measured upto 24 hrs by LC-MS/MS analysis; format: ADME, organism-based; details: in vivo
# [25] = Apparent volume of distribution during terminal phase in Balb/c mouse at 5 mg/kg, ip administered as single dose measured upto 24 hrs by LC-MS/MS analysis; format: ADME, organism-based; details: in vivo, 5 mg/kg, 24 h
# [26] = Toxicity in Balb/c mouse infected with blood stage Plasmodium yoelii assessed as recrudescence at 10 to 30 mg/kg, ip QD for 5 consecutive days and measured on day 20; format: organism-based; details: in vivo, 120 h, dose 10-30 mg/kg, time 5 day
smiles,measurement,setting,value
Cl.O=C(NO)c1cnc(N2CCC3(CCN(Cc4c[nH]c5ccccc45)C3)CC2)nc1,IC50,Plasmodium falciparum [1],3.19 nM
same,IC50,Plasmodium falciparum [2],1.9 nM
same,IC50,HepG2,264 nM
same,IC50,HEK-293T,241 nM
same,selectivity ratio,[3],83
same,selectivity ratio,[4],75
same,IC50,Plasmodium falciparum [5],3.9 nM
same,IC50,Plasmodium falciparum [6],4.5 nM
same,half-life,[7],45 min
same,CLint scaled,[8],121 mL/min/kg
same,Activity,[9],Non-Toxic
same,Activity,Plasmodium yoelii [10],inactive
same,Activity,Plasmodium yoelii [11],Active
same,Activity,[12],Non-Toxic
same,Activity,Plasmodium berghei,Active
same,Activity,Plasmodium falciparum [13],Active
same,Activity,Plasmodium falciparum [14],Active
same,IC50,Plasmodium falciparum [15],52.2 nM
same,IC50,Plasmodium falciparum [16],69.5 nM
same,IC50,Histone deacetylase 2,1.8 nM
same,IC50,[17],> 10000 nM
same,Cmax,[18],108 ng/mL
same,t1/2,[19],26.4 min
same,half-life,[20],104 min
same,AUC(0-t) at 24 h,[21],117 ng·h/mL
same,AUC(0-inf),[22],119 ng·h/mL
same,CLz/F,[23],280 mL/min/kg
same,Vz/F,[24],10.3 L/kg
same,Vz/F,[25],60.4 L/kg
same,Activity,[26],Toxic
